Laboratory results: ChEMBL document CHEMBL1122152, “Synthesis of pseudo cofactor analogues as potential inhibitors of the folate enzymes” (J Med Chem, 1982)
Values joined by “and” are separate entries in the source; they are usually repeats but may differ in a detail not shown here. Identical values can stand only once.

How the values were obtained:
[1] = tested on: Columba livia; test: Percent inhibition was measured against 5-amino-4-imidazolecarboxamide ribotide transformylase(pigeon liver) enzyme at 10E-5 M inhibitory concentration
[2] = species: Sus scrofa; test: Percent inhibition was measured against 5,10-Methylene Tetrahydrofolate Reductase (porcine kidney) enzyme at 10E-4 M inhibitory concentration
[3] = tested on: Thymidylate synthase; test: Percent inhibition was measured against Thymidylate synthase (calf thymus) enzyme at 10E-4 M inhibitory concentration
[4] = biological target: T1, C-1-tetrahydrofolate synthase, cytoplasmic (Homo sapiens) (UniProt P11586); test: Percent inhibition was measured against 5,10-Methylene Tetrahydrofolate Cyclohydrolase (L1210 tumor tissue) enzyme at 10E-4 M inhibitory concentration
T1 sequence (whole entry): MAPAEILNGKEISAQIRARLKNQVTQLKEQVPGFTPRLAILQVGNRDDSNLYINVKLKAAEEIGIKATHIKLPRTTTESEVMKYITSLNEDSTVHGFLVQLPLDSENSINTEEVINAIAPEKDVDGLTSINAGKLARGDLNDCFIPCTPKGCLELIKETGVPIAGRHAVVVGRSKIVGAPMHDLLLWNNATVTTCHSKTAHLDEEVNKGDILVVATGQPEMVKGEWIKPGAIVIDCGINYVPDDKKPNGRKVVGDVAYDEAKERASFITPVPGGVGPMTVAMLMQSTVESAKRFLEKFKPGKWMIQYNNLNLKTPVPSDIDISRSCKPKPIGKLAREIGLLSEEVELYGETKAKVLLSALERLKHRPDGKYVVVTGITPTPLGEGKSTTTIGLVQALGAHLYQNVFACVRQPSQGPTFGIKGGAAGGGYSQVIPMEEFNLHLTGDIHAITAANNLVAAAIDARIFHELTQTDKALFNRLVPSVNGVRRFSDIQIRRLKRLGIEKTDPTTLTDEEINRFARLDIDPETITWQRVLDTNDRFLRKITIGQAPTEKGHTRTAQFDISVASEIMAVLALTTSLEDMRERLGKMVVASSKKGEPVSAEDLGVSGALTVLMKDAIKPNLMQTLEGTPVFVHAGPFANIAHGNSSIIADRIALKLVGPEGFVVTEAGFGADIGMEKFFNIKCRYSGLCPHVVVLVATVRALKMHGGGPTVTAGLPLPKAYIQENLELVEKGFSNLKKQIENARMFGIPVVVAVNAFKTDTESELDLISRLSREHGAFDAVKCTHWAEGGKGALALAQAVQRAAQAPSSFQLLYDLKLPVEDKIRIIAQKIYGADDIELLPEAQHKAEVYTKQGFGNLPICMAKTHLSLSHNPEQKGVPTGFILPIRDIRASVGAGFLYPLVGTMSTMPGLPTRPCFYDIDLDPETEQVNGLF

[5] = species: Sus scrofa; test: Percent inhibition was measured against methionine synthetase (porcine kidney)enzyme at 10E-4 M inhibitory concentration
[6] = species: Sus scrofa; test: (§1) Percent inhibition was measured against 5,10-Methylene Tetrahydrofolate Cyclohydrolase (porcine liver) enzyme at 10E-4 M inhibitory concentration
[7] = biological target: T1, C-1-tetrahydrofolate synthase, cytoplasmic (Homo sapiens); test: Percent inhibition was measured against 5,10-Methylene Tetrahydrofolate Cyclohydrolase (porcine liver) enzyme at 10E-6 M inhibitory concentration; details: Sus scrofa; target entry is the homologue from another species
[8] = biological target: T1, C-1-tetrahydrofolate synthase, cytoplasmic (Homo sapiens); test: Percent inhibition was measured against 5,10-Methylene Tetrahydrofolate Cyclohydrolase (porcine liver) enzyme at 10E-5 M inhibitory concentration; details: Sus scrofa; target entry is the homologue from another species
[9] = tested on: formyltetrahydrofolate synthetase (Mus musculus); test: Percent inhibition was measured against formyl tetrahydrofolate synthase (L1210 tumor tissue) enzyme at 10E-4 M inhibitory concentration
[10] = biological target: Dihydrofolate reductase (Bos taurus) (UniProt P00376); test: Percent inhibition was measured against Dihydrofolate reductase (bovine liver) enzyme at 10E-4 M inhibitory concentration
[11] = tested on: Columba livia; test: Percent inhibition was measured against glycinamide ribotide transformylase (pigeon liver) enzyme at 10E-4 M inhibitory concentration
[12] = species: Sus scrofa; test: Percent inhibition was measured against Serine transhydroxymethylase (porcine liver) enzyme. at 10E-4 M inhibitory concentration
[13] = biological target: T1, C-1-tetrahydrofolate synthase, cytoplasmic (Homo sapiens); test: Percent inhibition was measured against 5,10-Methylene Tetrahydrofolate Cyclohydrolase (L1210 tumor tissue) enzyme at 10E-6 M inhibitory concentration; details: Sus scrofa
[14] = species: Sus scrofa; test: Percent inhibition was measured against formyl tetrahydrofolate synthase (porcine liver) enzyme at 10E-4 M inhibitory concentration
[15] = biological target: T1, C-1-tetrahydrofolate synthase, cytoplasmic (Homo sapiens); test: Percent inhibition was measured against 5,10-Methylene Tetrahydrofolate Cyclohydrolase (L1210 tumor tissue) enzyme at 10E-5 M inhibitory concentration
[16] = species: Sus scrofa; test: Percent inhibition was measured against Serine transhydroxymethylase (porcine liver) enzyme at 10E-4 M inhibitory concentration
[17] = biological target: T1, C-1-tetrahydrofolate synthase, cytoplasmic (Homo sapiens); test: Percent inhibition was measured against 5,10-Methylene Tetrahydrofolate Cyclohydrolase (porcine liver) enzyme at 10E-7 M inhibitory concentration; details: Sus scrofa; target entry is the homologue from another species
[18] = biological target: T1, C-1-tetrahydrofolate synthase, cytoplasmic (Homo sapiens); test: as §1; details: Sus scrofa; target entry is the homologue from another species
[19] = biological target: T1, C-1-tetrahydrofolate synthase, cytoplasmic (Homo sapiens); test: as §1; details: Sus scrofa; target entry is the homologue from another species; remark: listed apart in the source
[20] = tested on: Columba livia; test: Percent inhibition was measured against 5-amino-4-imidazolecarboxamide ribotide transformylase(pigeon liver) enzyme at 10E-4 M inhibitory concentration
[21] = Percent inhibition was measured against 5,10-Methylene Tetrahydrofolate Cyclohydrolase (L1210 tumor tissue) enzyme at 10E-6 M inhibitory concentration
[22] = tested on: Columba livia; test: Percent inhibition was measured against 5-amino-4-imidazolecarboxamide ribotide transformylase(pigeon liver) enzyme.; details: concentration not given here
[23] = biological target: T1, C-1-tetrahydrofolate synthase, cytoplasmic (Homo sapiens); test: Percent inhibition was measured against 5,10-Methylene Tetrahydrofolate Cyclohydrolase (porcine liver) enzyme.; details: Sus scrofa; target entry is the homologue from another species; concentration not given here
[24] = species: Sus scrofa; test: Percent inhibition was measured against 5,10-Methylene Tetrahydrofolate Reductase (porcine kidney) enzyme.; details: concentration not given here
[25] = biological target: Thymidylate synthase (Homo sapiens) (UniProt P04818); test: Percent inhibition was measured against Thymidylate synthase (calf thymus) enzyme; details: concentration not given here
[26] = biological target: T1, C-1-tetrahydrofolate synthase, cytoplasmic (Homo sapiens); test: Percent inhibition was measured against 5,10-Methylene Tetrahydrofolate Cyclohydrolase (A,porcine liver) enzyme.; details: Sus scrofa; target entry is the homologue from another species; concentration not given here
[27] = species: Sus scrofa; test: Percent inhibition was measured against formyl tetrahydrofolate synthase (porcine liver) enzyme.; details: concentration not given here
[28] = tested on: Columba livia; test: Percent inhibition was measured against glycinamide ribotide transformylase (pigeon liver) enzyme.; details: concentration not given here
[29] = species: Sus scrofa; test: Percent inhibition was measured against methionine synthetase (porcine kidney)enzyme.; details: concentration not given here

Sequence of Dihydrofolate reductase (Bos taurus) (P00376 whole entry, looked up): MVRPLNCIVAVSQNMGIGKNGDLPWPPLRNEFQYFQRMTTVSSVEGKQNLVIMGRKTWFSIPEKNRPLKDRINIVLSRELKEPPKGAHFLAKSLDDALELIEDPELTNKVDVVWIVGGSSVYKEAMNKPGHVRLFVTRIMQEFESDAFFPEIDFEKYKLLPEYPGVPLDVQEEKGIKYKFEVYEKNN
Sequence of Thymidylate synthase (Homo sapiens) (P04818 2-313 limits assumed): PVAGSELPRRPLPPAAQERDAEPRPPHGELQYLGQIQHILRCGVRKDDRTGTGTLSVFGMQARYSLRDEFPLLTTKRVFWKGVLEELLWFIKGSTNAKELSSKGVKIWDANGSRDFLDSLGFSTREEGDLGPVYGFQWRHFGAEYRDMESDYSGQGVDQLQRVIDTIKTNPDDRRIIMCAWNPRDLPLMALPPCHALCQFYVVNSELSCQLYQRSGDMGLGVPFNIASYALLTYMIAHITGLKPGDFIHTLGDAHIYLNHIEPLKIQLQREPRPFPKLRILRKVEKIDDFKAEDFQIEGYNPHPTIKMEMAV

inhibition [1] [%] | inhibition [2] [%] | inhibition [3] [%] | inhibition [4] [%] | inhibition [5] [%] | inhibition [7] [%] | inhibition [9] [%] | inhibition [10] [%] | inhibition [11] [%] | inhibition [12] [%] | inhibition [13] [%] | inhibition [14] [%] | inhibition [18] | inhibition [20] [%] | Compound | also measured
37 | 55 | 8 | 12 | 5 | 24 | 13 | 30 | 11 | 0 | 50 | – | – | – | Nc1nc2c(c(=O)[nH]1)N1C(=S)N(c3ccc(C(=O)NC(CCC(=O)O)C(=O)O)cc3)CC1CN2 (stereo not drawn) | inhibition [6]: 24%; inhibition [8]: 27%
0 | 41 | 25 | – | 2 | 24 | 16 | 16 | 0 | – | 48 | 15 | – | – | Nc1nc2c(c(=O)[nH]1)N1C(=O)N(c3ccc(C(=O)NC(CCC(=O)O)C(=O)O)cc3)CC1CN2 (stereo not drawn) | inhibition [15]: 51%; inhibition [16]: 40%; inhibition [17]: 48%
– | 0 | 0 | 24 | 4 | – | 12 | 0 | 0 | 30 | – | 21 | 24% | 13 | N=C1N(c2ccc(C(=O)NC(CCC(=O)O)C(=O)O)cc2)CC2CNc3nc(N)[nH]c(=O)c3N12 (stereo not drawn) | inhibition [19]: 61%; inhibition [21]: 43%
– | – | – | – | – | – | – | 15 | – | 10 | – | – | – | – | Nc1nc2c(c(=O)[nH]1)N1C=[N+](c3ccc(C(=O)NC(CCC(=O)O)C(=O)O)cc3)CC1CN2 (stereo not drawn) | inhibition [22]: 19%; inhibition [23]: 0%; inhibition [24]: 40%; inhibition [25]: 0%; inhibition [26]: 9%; inhibition [27]: 0%; inhibition [28]: 0%; inhibition [29]: 22%
– | 20 | 16 | – | 10 | – | – | 13 | 0 | 10 | – | 0 | 3% and 0% | 33 | Nc1nc2c(c(=O)[nH]1)N1CCN(c3ccc(C(=O)NC(CCC(=O)O)C(=O)O)cc3)CC1CN2 (stereo not drawn) | –
